What all share (assay type): functional
In assay [1] the test system is Rattus norvegicus. The assay is described as follows: Antiedema efficacy was measured in male Sprague-Dawley rats relative to aspirin; activity expressed as percent of aspirin.
The species named for assay [2] is Rattus norvegicus. Put plainly: Effective dose of compound to produce 25% inhibition in rat; Value ranges from 326-499.
For assay [3], the species on record is Rattus norvegicus. The assay is described as follows: Compound was tested for 50% inhibition of incidence of lesions (UD50) in rat.
Assay [4] in a line: Ratio between ulcerogenicity and anti edema activity (UD50/ED25).

As to `CC(=O)Oc1ccccc1C(=O)O` [ASPIRIN], the Activity in the assay on Rattus norvegicus [1] stood at 100%. Also, the ED25 in the assay filed under Rattus norvegicus [2] was 402 µM/kg.

Take `CCCCCCCCCCCCCCCC(=O)OCC(COC(=O)CCCCCCCCCCCCCCC)OC1(C)OC(=O)c2ccccc2O1` (configuration not stated): the Activity with Rattus norvegicus [1] is 62%.

Compound `CC(=O)OCC(COC(C)=O)OC1(C)OC(=O)c2ccccc2O1` (configuration not stated) showed an Activity with Rattus norvegicus [1] of 62%.

Take `CCCCCCCCCC(=O)OCC(COC(=O)CCCCCCCCC)OC1(C)OC(=O)c2ccccc2O1` (configuration not stated): the UD50 in the assay filed under Rattus norvegicus [3] is 4102 µM/kg. Moreover, in the assay with Rattus norvegicus [1], the Activity worked out at 100%. Besides, the Ratio in assay [4] stood at 10.6.

(Values after ChEMBL document CHEMBL1121620, “Glycerides as prodrugs. 2. 1,3-Dialkanoyl-2-(2-methyl-4-oxo-1,3-benzodioxan-2-yl)glycerides (cyclic aspirin triglycerides) as antiinflammatory agents” (1980).)
